# PubChem BioAssay AID2060621 (Molecular Pharmacology Branch, DTP, NCI, 2025)
# Where “and” joins values, the source holds several entries; their conditions need not be identical. Equal values may be shown once.
# System: 324938-238-R-J1-PDC complex spheroids viability
# Experiment: Anticancer human tumor 324938-238-R-J1-PDC patient-derived bladder carcinoma cell line growth inhibition [CLK]
# Conditions: for viability, T/C: stronger effect = lower value
# In short: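 Multi-cell-type spheroids combined patient-derived tumor cells with HUVEC endothelial cells and human mesenchymal stem cells. Paired agents were dosed in half-log steps down from about clinical Cmax, or from 10 microM where Cmax was unknown.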
# [1] = curve of first compound, second compound 0.0316 µM
# [2] = curve of first compound, second compound 0.1 µM
# [3] = curve of first compound, second compound 0.316 µM
# [4] = curve of first compound, second compound 1 µM
# [5] = curve of first compound, second compound 3.16 µM
# [6] = curve of first compound, second compound 10 µM
# [7] = second compound 0.0316 µM, first compound 0.0316 µM
# [8] = second compound 0.0316 µM, first compound 0.1 µM
# [9] = second compound 0.0316 µM, first compound 0.316 µM
# [10] = second compound 0.0316 µM, first compound 1 µM
# [11] = second compound 0.0316 µM, first compound 3.16 µM
# [12] = second compound 0.0316 µM, first compound 10 µM
# [13] = second compound 0.1 µM, first compound 0.0316 µM
# [14] = second compound 0.1 µM, first compound 0.1 µM
# [15] = second compound 0.1 µM, first compound 0.316 µM
# [16] = second compound 0.1 µM, first compound 1 µM
# [17] = second compound 0.1 µM, first compound 3.16 µM
# [18] = second compound 0.1 µM, first compound 10 µM
# [19] = second compound 0.316 µM, first compound 0.0316 µM
# [20] = second compound 0.316 µM, first compound 0.1 µM
# [21] = second compound 0.316 µM, first compound 0.316 µM
# [22] = second compound 0.316 µM, first compound 1 µM
# [23] = second compound 0.316 µM, first compound 3.16 µM
# [24] = second compound 0.316 µM, first compound 10 µM
# [25] = second compound 1 µM, first compound 0.0316 µM
# [26] = second compound 1 µM, first compound 0.1 µM
# [27] = second compound 1 µM, first compound 0.316 µM
# [28] = second compound 1 µM, first compound 1 µM
# [29] = second compound 1 µM, first compound 3.16 µM
# [30] = second compound 1 µM, first compound 10 µM
# [31] = second compound 3.16 µM, first compound 0.0316 µM
# [32] = second compound 3.16 µM, first compound 0.1 µM
# [33] = second compound 3.16 µM, first compound 0.316 µM
# [34] = second compound 3.16 µM, first compound 1 µM
# [35] = second compound 3.16 µM, first compound 3.16 µM
# [36] = second compound 3.16 µM, first compound 10 µM
# [37] = second compound 10 µM, first compound 0.0316 µM
# [38] = second compound 10 µM, first compound 0.1 µM
# [39] = second compound 10 µM, first compound 0.316 µM
# [40] = second compound 10 µM, first compound 1 µM
# [41] = second compound 10 µM, first compound 3.16 µM
# [42] = second compound 10 µM, first compound 10 µM
# 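Note: viability read after seven days of drug exposure.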
# 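Throughout, for viability, T/C: 100% = DMSO vehicle control wells.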
compound,measurement,setting,value
CCCS(=O)(=O)Nc1ccc(F)c(C(=O)c2c[nH]c3ncc(-c4ccc(Cl)cc4)cc23)c1F + CNC(=O)c1ccc(Nc2nc(OC3CCCC3)c3c(-c4ccc5nc(C)oc5c4)c[nH]c3n2)c(OC)c1,IC50,[1],8.55 µM
same,IC50,[2],< 0.0316 µM
same,IC50,[3],< 0.0316 µM
same,IC50,[4],< 0.0316 µM
same,IC50,[5],< 0.0316 µM
same,IC50,[6],< 0.0316 µM
same,"viability, T/C",[7],89.8%
same,"viability, T/C",[8],89.2%
same,"viability, T/C",[9],92.1%
same,"viability, T/C",[10],103%
same,"viability, T/C",[11],98.6%
same,"viability, T/C",[12],43%
same,"viability, T/C",[13],31.2%
same,"viability, T/C",[14],32.5%
same,"viability, T/C",[15],29.6%
same,"viability, T/C",[16],29.1%
same,"viability, T/C",[17],35.8%
same,"viability, T/C",[18],33.8%
same,"viability, T/C",[19],19.8%
same,"viability, T/C",[20],18%
same,"viability, T/C",[21],20.9%
same,"viability, T/C",[22],19.3%
same,"viability, T/C",[23],24.4%
same,"viability, T/C",[24],26.1%
same,"viability, T/C",[25],25.1%
same,"viability, T/C",[26],15.8%
same,"viability, T/C",[27],18.2%
same,"viability, T/C",[28],22%
same,"viability, T/C",[29],19.2%
same,"viability, T/C",[30],18.1%
same,"viability, T/C",[31],15.2%
same,"viability, T/C",[32],15.8%
same,"viability, T/C",[33],19.3%
same,"viability, T/C",[34],19.1%
same,"viability, T/C",[35],22.4%
same,"viability, T/C",[36],15.5%
same,"viability, T/C",[37],17.5%
same,"viability, T/C",[38],18.8%
same,"viability, T/C",[39],17.4%
same,"viability, T/C",[40],18.3%
same,"viability, T/C",[41],23.9%
same,"viability, T/C",[42],17.2%
CN1CCN(c2cc(C(=O)Nc3cc4cc(-c5cnn(C)c5)ccc4cn3)ccn2)CC1,"viability, T/C",compound 0.0316 µM,80.8% [middle of 12 runs]
same,"viability, T/C",compound 0.1 µM,54.8% [middle of 12 runs]
same,"viability, T/C",compound 0.316 µM,22.3% [middle of 12 runs]
same,"viability, T/C",compound 1 µM,1.3% [middle of 12 runs]
same,"viability, T/C",compound 3.16 µM,0.22% [middle of 5 runs]
same,"viability, T/C",compound 10 µM,0.22% [middle of 10 runs]
same,IC50,"compound alone, run of 08/14/2023",116 nM [middle of 10 runs]
O=c1[nH]cc(F)c(=O)[nH]1,"viability, T/C",compound 0.0316 µM,83.8% and 80.7%
same,"viability, T/C",compound 0.1 µM,66.9% and 79.9%
same,"viability, T/C",compound 0.316 µM,24.9% and 37%
same,"viability, T/C",compound 1 µM,19.4% and 26%
same,"viability, T/C",compound 3.16 µM,16.1% and 20.8%
same,"viability, T/C",compound 10 µM,16.1% and 20.9%
same,IC50,curve of compound,0.159 µM and 0.223 µM
COc1c(OCCCN2CCOCC2)ccc2c3n(c(=NC(=O)c4cnc(N)nc4)nc12)CCN3 + CN1CCN(c2cc(C(=O)Nc3cc4cc(-c5cnn(C)c5)ccc4cn3)ccn2)CC1,IC50,[1],0.0173 µM
same,IC50,[2],0.00543 µM
same,IC50,[3],< 0.00316 µM
same,IC50,[4],< 0.00316 µM
same,IC50,[5],< 0.00316 µM
same,IC50,[6],< 0.00316 µM
same,"viability, T/C","second compound 0.0316 µM, first compound 0.00316 µM",76.1%
same,"viability, T/C","second compound 0.0316 µM, first compound 0.01 µM",59.6%
same,"viability, T/C",[7],39.2%
same,"viability, T/C",[8],21.2%
same,"viability, T/C",[9],7.23%
same,"viability, T/C",[10],1.32%
same,"viability, T/C","second compound 0.1 µM, first compound 0.00316 µM",55.8%
same,"viability, T/C","second compound 0.1 µM, first compound 0.01 µM",43.5%
same,"viability, T/C",[13],29.5%
same,"viability, T/C",[14],17.6%
same,"viability, T/C",[15],6.5%
same,"viability, T/C",[16],1.24%
same,"viability, T/C","second compound 0.316 µM, first compound 0.00316 µM",23.9%
same,"viability, T/C","second compound 0.316 µM, first compound 0.01 µM",19.4%
same,"viability, T/C",[19],15.1%
same,"viability, T/C",[20],8.98%
same,"viability, T/C",[21],2.42%
same,"viability, T/C",[22],0.55%
same,"viability, T/C","second compound 1 µM, first compound 0.00316 µM",2.31%
same,"viability, T/C","second compound 1 µM, first compound 0.01 µM",2.19%
same,"viability, T/C",[25],1.42%
same,"viability, T/C",[26],0.41%
same,"viability, T/C",[27],0.11%
same,"viability, T/C",[28],0.13%
same,"viability, T/C","second compound 3.16 µM, first compound 0.00316 µM",0.09%
same,"viability, T/C","second compound 3.16 µM, first compound 0.01 µM",0.16%
same,"viability, T/C",[31],0.14%
same,"viability, T/C",[32],0.07%
same,"viability, T/C",[33],0.08%
same,"viability, T/C",[34],0.13%
same,"viability, T/C","second compound 10 µM, first compound 0.00316 µM",0.05%
same,"viability, T/C","second compound 10 µM, first compound 0.01 µM",0.24%
same,"viability, T/C",[37],0.16%
same,"viability, T/C",[38],0.09%
same,"viability, T/C",[39],0.29%
same,"viability, T/C",[40],0.16%
CC1(C)CCC(CN2CCN(c3ccc(C(=O)NS(=O)(=O)c4ccc(NCC5CCOCC5)c([N+](=O)[O-])c4)c(Oc4cnc5[nH]ccc5c4)c3)CC2)=C(c2ccc(Cl)cc2)C1 + CNC(=O)c1ccc(Nc2nc(OC3CCCC3)c3c(-c4ccc5nc(C)oc5c4)c[nH]c3n2)c(OC)c1,IC50,[1],4.52 µM
same,IC50,[2],< 0.0316 µM
same,IC50,[3],< 0.0316 µM
same,IC50,[4],< 0.0316 µM
same,IC50,[5],< 0.0316 µM
same,IC50,[6],< 0.0316 µM
same,"viability, T/C",[7],76.8%
same,"viability, T/C",[8],78.4%
same,"viability, T/C",[9],84.1%
same,"viability, T/C",[10],83.6%
same,"viability, T/C",[11],69.4%
same,"viability, T/C",[12],6.56%
same,"viability, T/C",[13],29.6%
same,"viability, T/C",[14],25.7%
same,"viability, T/C",[15],26.6%
same,"viability, T/C",[16],19.6%
same,"viability, T/C",[17],19.8%
same,"viability, T/C",[18],4.63%
same,"viability, T/C",[19],18.9%
same,"viability, T/C",[20],14.3%
same,"viability, T/C",[21],15.2%
same,"viability, T/C",[22],13.7%
same,"viability, T/C",[23],14.6%
same,"viability, T/C",[24],4.21%
same,"viability, T/C",[25],14.7%
same,"viability, T/C",[26],21.3%
same,"viability, T/C",[27],14.7%
same,"viability, T/C",[28],14.5%
same,"viability, T/C",[29],13.2%
same,"viability, T/C",[30],7.92%
same,"viability, T/C",[31],17.9%
same,"viability, T/C",[32],14.5%
same,"viability, T/C",[33],14%
same,"viability, T/C",[34],14.8%
same,"viability, T/C",[35],13.6%
same,"viability, T/C",[36],8.16%
same,"viability, T/C",[37],14.8%
same,"viability, T/C",[38],15.1%
same,"viability, T/C",[39],15.8%
same,"viability, T/C",[40],14.7%
same,"viability, T/C",[41],14%
same,"viability, T/C",[42],7.47%
C=CC(=O)N1CCN(c2nc(=O)n(-c3c(C)ccnc3C(C)C)c3nc(-c4c(O)cccc4F)c(F)cc23)C(C)C1 (centres undefined) + CN1CCN(c2cc(C(=O)Nc3cc4cc(-c5cnn(C)c5)ccc4cn3)ccn2)CC1,IC50,[1],> 10 µM
same,IC50,[2],> 10 µM
same,IC50,[3],< 0.0316 µM
same,IC50,[4],< 0.0316 µM
same,IC50,[5],< 0.0316 µM
same,IC50,[6],< 0.0316 µM
same,"viability, T/C",[7],79.2%
same,"viability, T/C",[8],77.8%
same,"viability, T/C",[9],84.5%
same,"viability, T/C",[10],103%
same,"viability, T/C",[11],87.4%
same,"viability, T/C",[12],82.7%
same,"viability, T/C",[13],59.6%
same,"viability, T/C",[14],61.4%
same,"viability, T/C",[15],63.2%
same,"viability, T/C",[16],64.8%
same,"viability, T/C",[17],66.6%
same,"viability, T/C",[18],59.9%
same,"viability, T/C",[19],27.4%
same,"viability, T/C",[20],25%
same,"viability, T/C",[21],27.4%
same,"viability, T/C",[22],28.9%
same,"viability, T/C",[23],35.5%
same,"viability, T/C",[24],27.8%
same,"viability, T/C",[25],1.25%
same,"viability, T/C",[26],1.85%
same,"viability, T/C",[27],1.99%
same,"viability, T/C",[28],1.7%
same,"viability, T/C",[29],1.08%
same,"viability, T/C",[30],0.78%
same,"viability, T/C",[31],0.13%
same,"viability, T/C",[32],0.25%
same,"viability, T/C",[33],0.19%
same,"viability, T/C",[34],0.16%
same,"viability, T/C",[35],0.12%
same,"viability, T/C",[36],0.25%
same,"viability, T/C",[37],0.2%
same,"viability, T/C",[38],0.19%
same,"viability, T/C",[39],0.18%
same,"viability, T/C",[40],0.15%
same,"viability, T/C",[41],0.16%
same,"viability, T/C",[42],0.33%
CCCS(=O)(=O)Nc1ccc(F)c(C(=O)c2c[nH]c3ncc(-c4ccc(Cl)cc4)cc23)c1F,"viability, T/C",compound 0.0316 µM,80.8% and 83%
same,"viability, T/C",compound 0.1 µM,96.9% and 88.4%
same,"viability, T/C",compound 0.316 µM,102% and 90.1%
same,"viability, T/C",compound 1 µM,115% and 101%
same,"viability, T/C",compound 3.16 µM,111% and 94.9%
same,"viability, T/C",compound 10 µM,55% and 44.1%
same,IC50,curve of compound,> 10 µM and 8.67 µM
